In ChEMBL document CHEMBL1201862, “PubChem BioAssay data set” (2004):
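Dose response: 5 concentrations. Exposure: 48 h. Format: 96-well plates. Endpoint: linear interpolation; highest concentration if not reached. At the GI50, growth is halved.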 Activity calls are given as the source filed them. No stated cut-off is given here; in the data, active = GI50 up to about 1.1 µM and inactive = higher. Where a SMILES comes first, the peptide text is derived from it. [ ]: non-standard residue; d: D form. The star is where a group is joined. Phe(4-NO2) = N[CH](Cc1ccc([N+](=O)[O-])cc1)C(=O)O; Boc = CC(C)(C)OC(=O)*; OBn = c1ccc(CO*)cc1

What was measured:
Test in all cases: NCI tumour cell line growth inhibition, 48 h
SK-MEL-28 = tested on: SK-MEL-28
ACHN = tested on: ACHN
MCF7 = tested on: MCF7
SR = tested on: SR
NCI-H522 = tested on: NCI-H522
RPMI-8226 = tested on: RPMI-8226
OVCAR-3 = tested on: OVCAR-3
T47D = tested on: T47D
NCI-H23 = tested on: NCI-H23
K562 = tested on: K562
HCT-116 = tested on: HCT-116
PC-3 = tested on: PC-3
MDA-MB-435 = tested on: MDA-MB-435
CAKI-1 = tested on: CAKI-1
UO-31 = tested on: UO-31
CCRF-CEM = tested on: CCRF-CEM
IGROV-1 = tested on: IGROV-1
SF-268 = tested on: SF-268
A498 = tested on: A498
SN12C = tested on: SN12C

SMILES | GI50 (SK-MEL-28) | GI50 (ACHN) | GI50 (MCF7) | GI50 (SR) | GI50 (NCI-H522) | GI50 (RPMI-8226) | GI50 (OVCAR-3) | GI50 (T47D) | GI50 (NCI-H23) | GI50 (K562) | GI50 (HCT-116) | GI50 (PC-3) | GI50 (MDA-MB-435) | GI50 (CAKI-1) | GI50 (UO-31) | GI50 (CCRF-CEM) | GI50 (IGROV-1) | GI50 (SF-268) | GI50 (A498) | GI50 (SN12C)
COc1ccccc1Nc1nc(N)nc(N)c1N | > 100 µM (inactive) | > 100 µM (inactive) | 29.2 µM (inactive) | 23.7 µM (inactive) | 18.1 µM (inactive) | 34.4 µM (inactive) | 43.9 µM (inactive) | 58.5 µM (inactive) | 66.1 µM (inactive) | 45.1 µM (inactive) | 19 µM (inactive) | 90.8 µM (inactive) | 27.5 µM (inactive) | 58.7 µM (inactive) | > 100 µM (inactive) | 27 µM (inactive) | 72.6 µM (inactive) | 64.1 µM (inactive) | > 100 µM (inactive) | 17.5 µM (inactive)
CCOC(=O)c1oc2ccc([N+](=O)[O-])c3c2c1CCC3 | > 82.4 µM (inactive) | 58.3 µM (inactive) | > 76.6 µM (inactive) | > 100 µM (inactive) | 35.2 µM (inactive) | > 100 µM (inactive) | > 100 µM (inactive) | > 31.6 µM (inactive) | 61.4 µM (inactive) | > 69.7 µM (inactive) | 51.1 µM (inactive) | > 100 µM (inactive) | > 39.3 µM (inactive) | 61.4 µM (inactive) | 66.7 µM (inactive) | > 95.1 µM (inactive) | 57.9 µM (inactive) | 27.2 µM (inactive) | 32.7 µM (inactive) | > 84.3 µM (inactive)
Sc1ncnc2nc[nH]c12 [MERCAPTOPURINE ANHYDROUS] | 372 µM (inactive) | 6.27 µM (inactive) | 1.64 µM (inactive) | 1.24 µM (inactive) | 1.62 µM (inactive) | 1.76 µM (inactive) | 0.857 µM (active) | 3.55 µM (inactive) | 3.89 µM (inactive) | 0.351 µM (active) | 2.37 µM (inactive) | 4.39 µM (inactive) | 1.44 µM (inactive) | 3.21 µM (inactive) | 6.85 µM (inactive) | 1.26 µM (inactive) | 9.48 µM (inactive) | 4.11 µM (inactive) | 58.7 µM (inactive) | 23.8 µM (inactive)
O=C(NCCN1CCCC1)c1cn2c(ccc3sc4ccccc4c(=O)c32)n1 | 16.6 µM (inactive) | 5.13 µM (inactive) | 2.77 µM (inactive) | 1.17 µM (inactive) | 10.7 µM (inactive) | 1.52 µM (inactive) | 14.7 µM (inactive) | 19.6 µM (inactive) | 14.6 µM (inactive) | 1.5 µM (inactive) | 4.02 µM (inactive) | 13.8 µM (inactive) | 21 µM (inactive) | 11.4 µM (inactive) | 13.3 µM (inactive) | 1.22 µM (inactive) | 11.7 µM (inactive) | 12.4 µM (inactive) | 16.3 µM (inactive) | 10.9 µM (inactive)
CCOC(=O)c1c(CN2CCCC2)n(-c2ccccc2)c2cc(Br)c(O)cc12 | 15.1 µM (inactive) | 17.8 µM (inactive) | 21 µM (inactive) | 18.7 µM (inactive) | 17.1 µM (inactive) | 16.2 µM (inactive) | 15.9 µM (inactive) | 20.7 µM (inactive) | 19.3 µM (inactive) | 18.3 µM (inactive) | 16 µM (inactive) | 21.3 µM (inactive) | 18 µM (inactive) | 17.1 µM (inactive) | 12.1 µM (inactive) | 2.06 µM (inactive) | 16.8 µM (inactive) | 19.9 µM (inactive) | 16.4 µM (inactive) | 16.4 µM (inactive)
C=C1C(=O)O[C@@H]2C[C@@H](C)[C@@H]3C=CC(=O)[C@@]3(C)[C@@H](OC(=O)CC(=O)O[C@H]3[C@@H]4C(=C)C(=O)O[C@@H]4C[C@@H](C)[C@@H]4C=CC(=O)[C@]43C)[C@H]12 | 0.0398 µM (active) | 0.03 µM (active) | 0.0356 µM (active) | 0.0103 µM (active) | < 0.01 µM (active) | 0.0124 µM (active) | 0.033 µM (active) | 0.179 µM (active) | 0.0345 µM (active) | 0.0154 µM (active) | 0.0143 µM (active) | 0.146 µM (active) | 0.0356 µM (active) | 0.0238 µM (active) | 0.137 µM (active) | < 0.01 µM (active) | 0.173 µM (active) | 0.0582 µM (active) | 0.213 µM (active) | 0.0348 µM (active)
O=C1c2ccccc2C(=O)N1CCCCCCNOCCCN1C(=O)c2ccccc2C1=O | 55.3 µM (inactive) | 36.7 µM (inactive) | 35.3 µM (inactive) | 33.4 µM (inactive) | 26.5 µM (inactive) | 14.4 µM (inactive) | 23.7 µM (inactive) | 16.8 µM (inactive) | 26.1 µM (inactive) | 29.7 µM (inactive) | 48.8 µM (inactive) | 28.3 µM (inactive) | 25.2 µM (inactive) | 50.4 µM (inactive) | 34 µM (inactive) | 25.6 µM (inactive) | 90.6 µM (inactive) | > 100 µM (inactive) | 21.6 µM (inactive) | > 100 µM (inactive)
OC1CCC(COC(c2ccccc2)(c2ccccc2)c2ccccc2)O1 (stereo not given) | 18 µM (inactive) | 17 µM (inactive) | 17.1 µM (inactive) | > 10 µM (inactive) | 17.7 µM (inactive) | 19.5 µM (inactive) | 18.4 µM (inactive) | 20.2 µM (inactive) | 18 µM (inactive) | 14.8 µM (inactive) | 16.7 µM (inactive) | 10.7 µM (inactive) | 21.5 µM (inactive) | 17.1 µM (inactive) | 17.3 µM (inactive) | 14.2 µM (inactive) | 18.2 µM (inactive) | 16.9 µM (inactive) | 20.2 µM (inactive) | 19.2 µM (inactive)
CCC(=O)Nc1ccc(NC(C#N)c2cccc(Oc3ccccc3)c2)cc1 (stereo not given) | 53.3 µM (inactive) | 32.7 µM (inactive) | 35.2 µM (inactive) | 18.2 µM (inactive) | 48 µM (inactive) | 23.1 µM (inactive) | 52.4 µM (inactive) | 42.3 µM (inactive) | 45.2 µM (inactive) | 27.5 µM (inactive) | 34.5 µM (inactive) | 63.4 µM (inactive) | 35.5 µM (inactive) | 54.6 µM (inactive) | 42.2 µM (inactive) | 32.1 µM (inactive) | 48.2 µM (inactive) | 33.6 µM (inactive) | > 100 µM (inactive) | 51.8 µM (inactive)
Cc1c(O)oc2ccccc2c1=O | > 100 µM (inactive) | > 100 µM (inactive) | > 100 µM (inactive) | > 100 µM (inactive) | > 100 µM (inactive) | > 100 µM (inactive) | > 100 µM (inactive) | > 100 µM (inactive) | > 100 µM (inactive) | > 100 µM (inactive) | > 100 µM (inactive) | > 100 µM (inactive) | > 100 µM (inactive) | > 100 µM (inactive) | > 100 µM (inactive) | > 100 µM (inactive) | > 100 µM (inactive) | > 100 µM (inactive) | > 100 µM (inactive) | > 100 µM (inactive)
O=C1SC(SCc2ccccc2)=NC12CC2c1ccccc1 (stereo not given) | 19 µM (inactive) | 17.9 µM (inactive) | 18.8 µM (inactive) | 21.3 µM (inactive) | 14.5 µM (inactive) | 16.7 µM (inactive) | 27.7 µM (inactive) | 28.5 µM (inactive) | 20.1 µM (inactive) | 19.5 µM (inactive) | 16.6 µM (inactive) | 23.3 µM (inactive) | 22.1 µM (inactive) | 20 µM (inactive) | 19.5 µM (inactive) | 2.93 µM (inactive) | 21.4 µM (inactive) | 27 µM (inactive) | 25.5 µM (inactive) | 20 µM (inactive)
COc1ccc(-c2nc3ccc(C)cc3o2)c(OC)c1 | 55.7 µM (inactive) | 33 µM (inactive) | 30 µM (inactive) | 14.3 µM (inactive) | 18.8 µM (inactive) | 19.5 µM (inactive) | 15.7 µM (inactive) | 30.1 µM (inactive) | 27.8 µM (inactive) | 22.1 µM (inactive) | 17.9 µM (inactive) | 24.3 µM (inactive) | 21.6 µM (inactive) | 29.8 µM (inactive) | 24 µM (inactive) | 24.1 µM (inactive) | 20.8 µM (inactive) | 28.6 µM (inactive) | 18.6 µM (inactive) | 26.5 µM (inactive)
COC(=O)CCC(NC(=O)OC(C)(C)C)C(=O)NC(Cc1ccc([N+](=O)[O-])cc1)C(=O)NCC(=O)OCc1ccccc1 (stereo not given) (Boc-Glu(OMe)-[Phe(4-NO2)]-Gly-OBn; configuration not given here) | > 100 µM (inactive) | > 100 µM (inactive) | > 100 µM (inactive) | > 53.8 µM (inactive) | > 100 µM (inactive) | > 100 µM (inactive) | > 100 µM (inactive) | > 100 µM (inactive) | > 78.9 µM (inactive) | > 100 µM (inactive) | > 100 µM (inactive) | > 100 µM (inactive) | > 100 µM (inactive) | > 65.6 µM (inactive) | > 100 µM (inactive) | 99.3 µM (inactive) | > 100 µM (inactive) | 37.2 µM (inactive) | > 100 µM (inactive) | > 100 µM (inactive)
Cn1nc2c(c1N)Cc1c(nn(C)c1N)-c1ccccc1-2 | > 100 µM (inactive) | > 100 µM (inactive) | > 100 µM (inactive) | > 100 µM (inactive) | > 100 µM (inactive) | > 100 µM (inactive) | > 100 µM (inactive) | > 100 µM (inactive) | > 100 µM (inactive) | > 100 µM (inactive) | > 100 µM (inactive) | > 100 µM (inactive) | > 100 µM (inactive) | > 100 µM (inactive) | > 100 µM (inactive) | > 100 µM (inactive) | > 100 µM (inactive) | > 100 µM (inactive) | 20.2 µM (inactive) | > 100 µM (inactive)
